Measurements published in publication PMC4658637 (2015).

How the values were obtained:
[1] = tested on: SPR-c-kit2 (DNA, G4) GGGCGGGCGCGAGGGAGGGG; assay: SPR; settings: 100 mM K+ (KCl); 50 mM Tris-HCl, pH 7.2, 25 °C; Langmuir kinetic fit
[2] = tested on: c-kit2-Ap12 (DNA, G4, 2-aminopurine at 12) GGGCGGGCGCGAGGGAGGGG; assay: 2-aminopurine fluorescence titration; settings: 100 mM K+ (KCl); 10 mM Tris-HCl, pH 7.2; 1 μM DNA, 0-10 μM compound
[3] = tested on: KRAS (DNA, G4) AGGGCGGTGTGGGAAGAGGGAAGAGGGGGAGG; assay: fluorescence titration; settings: 100 mM K+ (KCl); 10 mM Tris-HCl, pH 7.2; strong light-up of 15 at 525 nm
[4] = tested on: c-kit2-Ap16 (DNA, G4, 2-aminopurine at 16) GGGCGGGCGCGAGGGAGGGG; assay: 2-aminopurine fluorescence titration; settings: 100 mM K+ (KCl); 10 mM Tris-HCl, pH 7.2; 1 μM DNA, 0-10 μM compound
[5] = tested on: HRAS-Ap21 (DNA, G4, 2-aminopurine at 21) TCGGGTTGCGGGCGCAGGGCACGGGCG; assay: 2-aminopurine fluorescence titration; settings: 100 mM K+ (KCl); 10 mM Tris-HCl, pH 7.2; 1 μM DNA, 0-10 μM compound
[6] = tested on: bcl-2 (DNA, G4) GGGCGGGCGCGGGAGGAAGGGGGCGGG; assay: fluorescence titration; settings: 100 mM K+ (KCl); 10 mM Tris-HCl, pH 7.2; strong light-up of 15 at 525 nm
[7] = tested on: c-kit3 (DNA, G4) GGCGAGGAGGGGCGTGGCCGGC; assay: fluorescence titration; settings: 100 mM K+ (KCl); 10 mM Tris-HCl, pH 7.2; much weaker light-up, up to 5 μM DNA
[8] = tested on: htg22 (DNA, G4) AGGGTTAGGGTTAGGGTTAGGG; assay: fluorescence titration; settings: 100 mM K+ (KCl); 10 mM Tris-HCl, pH 7.2; much weaker light-up, up to 5 μM DNA
[9] = tested on: TBA (DNA, G4) GGTTGGTGTGGTTGG; assay: fluorescence titration; settings: 100 mM K+ (KCl); 10 mM Tris-HCl, pH 7.2; much weaker light-up, up to 5 μM DNA
[10] = tested on: Pu22 (DNA, G4) TGAGGGTGGGTAGGGTGGGTAA; assay: fluorescence titration; settings: 100 mM K+ (KCl); 10 mM Tris-HCl, pH 7.2; strong light-up of 15 at 525 nm
[11] = tested on: HRAS-Ap16 (DNA, G4, 2-aminopurine at 16) TCGGGTTGCGGGCGCAGGGCACGGGCG; assay: 2-aminopurine fluorescence titration; settings: 100 mM K+ (KCl); 10 mM Tris-HCl, pH 7.2; 1 μM DNA, 0-10 μM compound
[12] = tested on: c-kit2-Ap4 (DNA, G4, 2-aminopurine at 4 (replaces C)) GGGCGGGCGCGAGGGAGGGG; assay: 2-aminopurine fluorescence titration; settings: 100 mM K+ (KCl); 10 mM Tris-HCl, pH 7.2; 1 μM DNA, 0-10 μM compound
[13] = tested on: c-kit2 (DNA, G4) GGGCGGGCGCGAGGGAGGGG; assay: fluorescence titration; settings: 100 mM K+ (KCl); 10 mM Tris-HCl, pH 7.2; strong light-up of 15 at 525 nm
[14] = tested on: HRAS-Ap7 (DNA, G4, 2-aminopurine at 7 (replaces T)) TCGGGTTGCGGGCGCAGGGCACGGGCG; assay: 2-aminopurine fluorescence titration; settings: 100 mM K+ (KCl); 10 mM Tris-HCl, pH 7.2; 1 μM DNA, 0-10 μM compound
[15] = tested on: HRAS (DNA, G4) TCGGGTTGCGGGCGCAGGGCACGGGCG; assay: fluorescence titration; settings: 100 mM K+ (KCl); 10 mM Tris-HCl, pH 7.2; much weaker light-up, up to 5 μM DNA
[16] = tested on: HT-L2H (DNA, G4) TTGGGTTAGGGTTAGGGTTAGGGA; assay: fluorescence titration; settings: 100 mM K+ (KCl); 10 mM Tris-HCl, pH 7.2; much weaker light-up, up to 5 μM DNA

A KD [1] of 13.9 µM was found for `C#CCOc1ccc(-c2[nH]c(-c3cc4ccc(N(CC)CC)cc4oc3=O)nc2-c2ccc(OCCCN(CC)CC)cc2)cc1` in this work.

With `CCN(CC)CCCOc1ccc(-c2nc(-c3cc4ccc(N(CC)CC)cc4oc3=O)[nH]c2-c2ccc(OCc3cn(CCC(=O)O)nn3)cc2)cc1` the binding [2] was “yes”, the binding [3] was “yes” and the binding [4] was “yes”. The binding [5] was “weak”, the binding [6] was “yes” and the binding [7] was “weak”. The KD [1] was 6.1 µM, the binding [8] was “weak” and the binding [9] was “weak”. The binding [10] was “yes”, the binding [11] was “weak” and the binding [12] was “yes”. The binding [13] was “yes”, the binding [14] was “weak” and the binding [15] was “weak”. The binding [16] was “weak”.

A KD [1] of 4.3 µM was found for `CCN(CC)CCCOc1ccc(-c2nc(-c3cc4ccc(N(CC)CC)cc4oc3=O)[nH]c2-c2ccc(OCc3cn(CCCN(C)C)nn3)cc2)cc1` in this work.

With `CCN(CC)CCCOc1ccc(-c2nc(-c3cc4ccc(N(CC)CC)cc4oc3=O)[nH]c2-c2ccc(OCc3cn(CCCN4CCN(C)CC4)nn3)cc2)cc1` the binding [4] was “yes”, the binding [5] was “yes” and the KD [1] was 2.0 µM. The binding [12] was “yes” and the binding [14] was “yes”.

A KD [1] of 3.1 µM was found for `CCN(CC)CCCOc1ccc(-c2nc(-c3cc4ccc(N(CC)CC)cc4oc3=O)[nH]c2-c2ccc(OCc3cn(CCCO)nn3)cc2)cc1` in this work.

A KD [1] of 2.7 µM was found for `CCN(CC)CCCOc1ccc(-c2nc(-c3cc4ccc(N(CC)CC)cc4oc3=O)[nH]c2-c2ccc(OCc3cn(CCN(C)C)nn3)cc2)cc1` in this work.

A KD [1] of 1.8 µM was found for `CCN(CC)CCCOc1ccc(-c2nc(-c3cc4ccc(N(CC)CC)cc4oc3=O)[nH]c2-c2ccc(OCc3cn(CCN4CCCCC4)nn3)cc2)cc1` in this work.

A KD [1] of 4.8 µM was found for `CCN(CC)CCCOc1ccc(-c2nc(-c3cc4ccc(N(CC)CC)cc4oc3=O)[nH]c2-c2ccc(OCc3cn(CCN4CCOCC4)nn3)cc2)cc1` in this work.
